In publication PMC11864979, “First-in-class ultralong-target-residence-time p38α inhibitors as a mitosis-targeted therapy for colorectal cancer” (Nature Cancer, 2025):
“And” between values parts separate entries of the source, which are not always exact repeats. Equal entries are not always repeated. Where two headings read alike, the source gives them in different places.

Experiments:
KAP^2D cells = test: cell size and DNA content analysis in KAP^2D cells (flow cytometry); assay type: cell-based, mouse; conditions: 1 µM, 1 day
Method: For DNA content analysis, cells were fixed with ethanol, washed and resuspended in PBS containing 50 µg ml^−1 propidium iodide (Invitrogen) and 250 µg ml^−1 RNase A (Qiagen). Apoptosis was analyzed with the FITC annexin V apoptosis detection kit (Biolegend). Both measurements were performed with FACS Canto II (BD) and physical parameters were used to exclude cell debris and cell doublets.

[1] = test system: KAP liver metastasis in Rag2^−/− mice; test: survival of Rag2^−/− mice with KAP liver metastasis; assay type: in vivo, mouse
Method: Subcutaneous injection, splenic seeding or cecum injection of organoids was performed in 8–10-week-old C57BL/6 N/Crl, Rag2^−/− (B6.Cg-Rag2^tm1.1Cgn/J), or CB17 Scid beige (CB17.Cg-Prkdc^scidLyst^bg-J/Crl) mice, obtained from Charles River. The organoids were dissociated into single cells, washed with PBS and injected in a 1:1 mixture of PBS and Matrigel. For murine organoids, 1 × 10^5 cells were injected into the left and right flanks or the spleen capsule and 2 × 10^6 cells were injected into the cecum wall. For human organoids, 4 × 10^5 cells were injected into the flanks of CB17 Scid beige mice. For splenic seeding and cecum injection, mice were anaesthetized using ketamine (100 mg kg^−1, intraperitoneally) and xylazin (10 mg/kg, intraperitoneally) in NaCl and a small laparotomy below the thorax was performed.

[2] = full blood analysis of mice treated for 4 days or 10 weeks (Sysmex KX-21N); assay type: in vivo, mouse; conditions: for Hemoglobin / MCV / MCH / MCHC: individual animals; for Hemoglobin: ED Fig. 10a; for MCV: ED Fig. 10b; for MCH: ED Fig. 10c; for MCHC: ED Fig. 10d; for Hematocrit (%): mice
Source text: We conducted a daily treatment of wild-type mice with 2015 or carrier for either 4 days or 10 weeks and subsequently quantified leukocytes, platelets and erythrocytes. Furthermore, we determined the hematocrit and the hemoglobin concentration and calculated routinely used red blood cell indices (mean corpuscular volume (MCV), mean corpuscular hemoglobin (MCH) and mean corpuscular hemoglobin concentration (MCHC)). […] No mice were excluded during treatment studies. […] GFP imaging of tumors was performed using a Hamamatsu imaging system. For quantification of compounds in the murine plasma, 20 μl of tail-vein blood was diluted with 80 μl of heparin solution, before 200 μl of ice-cold acetonitrile with a defined internal standard was added. The samples were sonicated and centrifuged and the supernatant was subjected to liquid chromatography-mass spectrometry quantification. Full blood analyses were performed with the Sysmex KX-21N hematology analyzer.

340 wild-type kinases [3] = target: T1, 340 wild-type kinases (Homo sapiens, UniProt P35626); test: selectivity profiling in a panel of 340 wild-type kinases (Reaction Biology Europe); assay type: binding
T1 construct: purchased Reaction Biology Europe
T1 sequence (P35626 1-688): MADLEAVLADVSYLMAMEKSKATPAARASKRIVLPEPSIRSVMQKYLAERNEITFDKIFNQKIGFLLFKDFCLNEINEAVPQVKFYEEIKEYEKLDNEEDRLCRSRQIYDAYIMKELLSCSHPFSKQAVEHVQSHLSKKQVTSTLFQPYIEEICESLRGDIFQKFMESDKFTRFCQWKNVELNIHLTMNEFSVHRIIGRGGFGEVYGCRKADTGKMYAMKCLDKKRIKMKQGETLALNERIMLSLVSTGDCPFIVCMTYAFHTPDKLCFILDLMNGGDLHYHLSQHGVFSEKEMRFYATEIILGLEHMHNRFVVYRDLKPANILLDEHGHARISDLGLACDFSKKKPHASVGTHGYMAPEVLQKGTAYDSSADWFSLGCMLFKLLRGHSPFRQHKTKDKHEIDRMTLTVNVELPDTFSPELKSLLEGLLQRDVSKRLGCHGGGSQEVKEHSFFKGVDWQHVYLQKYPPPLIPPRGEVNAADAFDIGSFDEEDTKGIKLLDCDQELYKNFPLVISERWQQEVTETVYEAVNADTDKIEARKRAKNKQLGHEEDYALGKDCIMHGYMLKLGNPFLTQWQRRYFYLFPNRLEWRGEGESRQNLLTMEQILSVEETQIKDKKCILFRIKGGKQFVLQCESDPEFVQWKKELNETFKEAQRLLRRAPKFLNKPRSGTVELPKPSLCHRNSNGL

340 wild-type kinases [4] = target: T2, 340 wild-type kinases (Homo sapiens, UniProt P49137); test: as above; assay type: binding
T2 construct: purchased Reaction Biology Europe

340 wild-type kinases [5] = target: T3, 340 wild-type kinases (Homo sapiens, UniProt Q13233); test: as above; assay type: binding
T3 construct: purchased Reaction Biology Europe

340 wild-type kinases [6] = target: T4, 340 wild-type kinases (Homo sapiens, UniProt Q16512); test: as above; assay type: binding
T4 construct: purchased Reaction Biology Europe

340 wild-type kinases [7] = target: T5, 340 wild-type kinases (Homo sapiens, UniProt Q9NYV4); test: as above; assay type: binding
T5 construct: purchased Reaction Biology Europe

340 wild-type kinases [8] = target: T6, 340 wild-type kinases (Homo sapiens, UniProt Q9Y2U5); test: as above; assay type: binding
T6 construct: purchased Reaction Biology Europe
T6 sequence (Q9Y2U5 1-619): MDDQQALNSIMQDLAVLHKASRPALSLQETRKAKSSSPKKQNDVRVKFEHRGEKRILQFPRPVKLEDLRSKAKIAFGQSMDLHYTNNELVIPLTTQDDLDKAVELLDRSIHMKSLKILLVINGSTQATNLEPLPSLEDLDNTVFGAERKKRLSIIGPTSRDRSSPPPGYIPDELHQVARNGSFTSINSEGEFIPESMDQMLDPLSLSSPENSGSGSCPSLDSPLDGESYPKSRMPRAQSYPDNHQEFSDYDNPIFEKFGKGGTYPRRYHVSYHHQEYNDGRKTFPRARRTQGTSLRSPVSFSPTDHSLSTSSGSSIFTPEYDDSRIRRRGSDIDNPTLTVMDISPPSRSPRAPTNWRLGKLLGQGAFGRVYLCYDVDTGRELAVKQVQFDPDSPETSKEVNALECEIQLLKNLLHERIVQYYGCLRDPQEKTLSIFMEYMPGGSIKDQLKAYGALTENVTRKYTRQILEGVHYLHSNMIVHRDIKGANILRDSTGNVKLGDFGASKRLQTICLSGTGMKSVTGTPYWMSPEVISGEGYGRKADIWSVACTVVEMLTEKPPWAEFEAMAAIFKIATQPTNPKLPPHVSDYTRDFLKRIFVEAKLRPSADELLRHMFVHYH

T2 sequence (P49137 whole entry): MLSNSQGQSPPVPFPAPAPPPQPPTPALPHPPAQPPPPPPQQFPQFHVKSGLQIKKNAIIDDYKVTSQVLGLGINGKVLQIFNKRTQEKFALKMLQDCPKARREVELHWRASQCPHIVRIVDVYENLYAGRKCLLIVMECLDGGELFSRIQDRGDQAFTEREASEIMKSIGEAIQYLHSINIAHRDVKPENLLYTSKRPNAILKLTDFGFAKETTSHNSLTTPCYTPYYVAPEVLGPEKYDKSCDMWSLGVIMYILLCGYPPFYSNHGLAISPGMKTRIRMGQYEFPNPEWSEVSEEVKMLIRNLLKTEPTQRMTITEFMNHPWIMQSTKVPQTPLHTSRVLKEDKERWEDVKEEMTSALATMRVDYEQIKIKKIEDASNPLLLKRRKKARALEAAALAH
T4 sequence (Q16512 whole entry): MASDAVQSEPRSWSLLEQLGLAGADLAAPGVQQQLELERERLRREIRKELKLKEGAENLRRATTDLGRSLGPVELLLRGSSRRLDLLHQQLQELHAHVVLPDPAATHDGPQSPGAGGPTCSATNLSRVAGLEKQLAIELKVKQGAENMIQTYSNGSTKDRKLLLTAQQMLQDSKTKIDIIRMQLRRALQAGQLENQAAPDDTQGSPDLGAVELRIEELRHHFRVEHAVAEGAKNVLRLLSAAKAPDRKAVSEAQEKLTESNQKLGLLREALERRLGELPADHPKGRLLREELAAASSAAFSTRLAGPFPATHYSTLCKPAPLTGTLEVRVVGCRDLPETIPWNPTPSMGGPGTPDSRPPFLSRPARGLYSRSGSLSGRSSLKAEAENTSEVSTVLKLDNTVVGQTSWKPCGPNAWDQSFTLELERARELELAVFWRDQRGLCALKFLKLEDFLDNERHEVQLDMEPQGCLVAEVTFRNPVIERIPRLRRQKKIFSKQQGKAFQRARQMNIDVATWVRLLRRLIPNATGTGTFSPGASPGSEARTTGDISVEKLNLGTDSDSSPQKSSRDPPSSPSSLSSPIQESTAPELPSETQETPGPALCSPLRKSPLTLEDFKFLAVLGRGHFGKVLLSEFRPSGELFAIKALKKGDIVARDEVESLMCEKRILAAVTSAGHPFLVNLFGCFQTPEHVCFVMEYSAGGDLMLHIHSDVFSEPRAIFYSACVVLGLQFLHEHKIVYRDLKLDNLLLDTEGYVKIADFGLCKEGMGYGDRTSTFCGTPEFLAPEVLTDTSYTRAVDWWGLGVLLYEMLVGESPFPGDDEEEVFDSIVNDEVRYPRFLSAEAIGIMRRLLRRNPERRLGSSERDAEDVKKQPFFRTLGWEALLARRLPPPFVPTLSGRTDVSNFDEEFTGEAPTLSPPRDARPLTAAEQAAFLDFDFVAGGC
T5 sequence (Q9NYV4 whole entry): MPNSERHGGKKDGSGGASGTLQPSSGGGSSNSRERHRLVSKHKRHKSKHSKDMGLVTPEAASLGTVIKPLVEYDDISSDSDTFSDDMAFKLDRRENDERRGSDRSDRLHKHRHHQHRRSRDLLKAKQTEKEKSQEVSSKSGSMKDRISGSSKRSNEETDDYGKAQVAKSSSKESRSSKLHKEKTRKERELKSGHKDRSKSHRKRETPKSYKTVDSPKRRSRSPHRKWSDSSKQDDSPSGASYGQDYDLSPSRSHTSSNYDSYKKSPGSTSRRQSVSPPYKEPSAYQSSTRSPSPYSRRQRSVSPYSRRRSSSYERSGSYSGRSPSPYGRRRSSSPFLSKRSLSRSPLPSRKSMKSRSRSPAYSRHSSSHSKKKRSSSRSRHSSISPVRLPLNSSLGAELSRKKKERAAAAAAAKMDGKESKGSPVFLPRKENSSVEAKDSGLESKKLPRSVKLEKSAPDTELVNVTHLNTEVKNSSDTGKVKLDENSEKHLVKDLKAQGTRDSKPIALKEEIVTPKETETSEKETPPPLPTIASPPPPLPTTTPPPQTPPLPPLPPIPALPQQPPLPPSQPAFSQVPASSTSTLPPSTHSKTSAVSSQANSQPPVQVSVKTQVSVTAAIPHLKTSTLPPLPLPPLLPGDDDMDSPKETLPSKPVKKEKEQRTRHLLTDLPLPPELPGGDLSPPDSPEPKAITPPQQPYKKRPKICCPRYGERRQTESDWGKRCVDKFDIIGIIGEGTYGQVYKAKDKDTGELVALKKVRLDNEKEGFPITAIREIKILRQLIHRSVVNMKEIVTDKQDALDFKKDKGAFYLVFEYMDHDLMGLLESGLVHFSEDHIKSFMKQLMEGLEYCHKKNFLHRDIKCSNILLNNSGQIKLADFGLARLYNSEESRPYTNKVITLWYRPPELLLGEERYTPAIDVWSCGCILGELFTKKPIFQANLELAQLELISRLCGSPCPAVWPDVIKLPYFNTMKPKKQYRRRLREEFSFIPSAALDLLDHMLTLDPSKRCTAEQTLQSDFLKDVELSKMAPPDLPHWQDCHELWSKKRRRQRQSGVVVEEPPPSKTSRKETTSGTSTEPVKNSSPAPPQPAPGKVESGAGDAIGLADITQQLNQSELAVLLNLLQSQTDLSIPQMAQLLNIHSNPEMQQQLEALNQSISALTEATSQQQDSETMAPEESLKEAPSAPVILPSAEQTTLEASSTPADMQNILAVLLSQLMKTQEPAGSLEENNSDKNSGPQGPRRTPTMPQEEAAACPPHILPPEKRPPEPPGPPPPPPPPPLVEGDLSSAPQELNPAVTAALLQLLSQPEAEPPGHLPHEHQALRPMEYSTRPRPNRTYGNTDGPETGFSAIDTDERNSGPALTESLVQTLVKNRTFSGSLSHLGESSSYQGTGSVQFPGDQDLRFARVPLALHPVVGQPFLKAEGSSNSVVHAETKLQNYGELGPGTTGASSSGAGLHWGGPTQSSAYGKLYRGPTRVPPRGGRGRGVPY
T3 sequence (Q13233 whole entry): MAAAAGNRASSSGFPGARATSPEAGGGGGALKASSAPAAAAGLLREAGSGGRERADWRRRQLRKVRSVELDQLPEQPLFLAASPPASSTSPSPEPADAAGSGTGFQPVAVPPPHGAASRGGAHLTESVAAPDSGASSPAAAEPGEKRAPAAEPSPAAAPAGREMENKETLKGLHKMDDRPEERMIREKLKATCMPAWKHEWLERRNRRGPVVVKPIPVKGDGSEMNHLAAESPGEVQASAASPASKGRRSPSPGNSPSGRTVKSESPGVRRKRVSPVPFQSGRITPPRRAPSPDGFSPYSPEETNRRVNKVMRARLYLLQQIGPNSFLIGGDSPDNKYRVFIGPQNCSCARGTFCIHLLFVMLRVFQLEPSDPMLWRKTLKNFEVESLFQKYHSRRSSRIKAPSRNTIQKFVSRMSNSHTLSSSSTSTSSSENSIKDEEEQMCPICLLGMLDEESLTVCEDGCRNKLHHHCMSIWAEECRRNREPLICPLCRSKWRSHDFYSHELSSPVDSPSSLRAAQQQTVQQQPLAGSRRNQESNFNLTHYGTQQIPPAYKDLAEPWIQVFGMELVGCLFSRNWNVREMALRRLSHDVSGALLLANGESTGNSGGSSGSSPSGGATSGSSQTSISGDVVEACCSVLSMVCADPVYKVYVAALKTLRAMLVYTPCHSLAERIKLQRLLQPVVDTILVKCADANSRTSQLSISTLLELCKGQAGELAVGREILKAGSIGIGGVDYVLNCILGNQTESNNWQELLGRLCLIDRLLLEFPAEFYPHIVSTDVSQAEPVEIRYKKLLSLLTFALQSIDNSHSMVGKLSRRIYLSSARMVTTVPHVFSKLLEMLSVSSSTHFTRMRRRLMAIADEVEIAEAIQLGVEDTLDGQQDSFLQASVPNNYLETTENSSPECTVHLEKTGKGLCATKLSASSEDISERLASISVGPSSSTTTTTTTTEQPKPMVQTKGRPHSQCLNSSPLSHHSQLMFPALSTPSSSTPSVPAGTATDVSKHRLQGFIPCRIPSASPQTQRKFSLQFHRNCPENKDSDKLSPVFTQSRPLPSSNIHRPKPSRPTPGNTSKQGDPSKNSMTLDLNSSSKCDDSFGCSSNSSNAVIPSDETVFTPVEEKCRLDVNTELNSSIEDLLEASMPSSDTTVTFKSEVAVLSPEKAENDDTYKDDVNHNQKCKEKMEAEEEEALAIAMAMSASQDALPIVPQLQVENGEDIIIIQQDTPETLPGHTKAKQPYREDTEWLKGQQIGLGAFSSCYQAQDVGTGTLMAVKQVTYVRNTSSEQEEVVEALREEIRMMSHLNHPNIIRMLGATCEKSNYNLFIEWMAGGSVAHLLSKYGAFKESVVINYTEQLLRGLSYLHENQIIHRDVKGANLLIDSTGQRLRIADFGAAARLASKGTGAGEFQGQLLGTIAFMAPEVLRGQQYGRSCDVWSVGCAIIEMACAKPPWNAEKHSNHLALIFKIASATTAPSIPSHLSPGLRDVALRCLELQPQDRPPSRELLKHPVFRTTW

SMILES: CNC(=O)c1ccc2c(c1)C(=O)c1ccc(Nc3ccc(F)c(NC(=O)C4CC4)c3)cc1CC2 [Compound 2015]
- DNA content (in words) (KAP^2D cells): strong induction of aneuploidy and polyploidy
- treatment response in Rag2^−/− mice (in words) ([1]; KAP liver metastasis): strong treatment response
- Survival ([1]; single animals, 1 = event, Fig. 6i): 40 d of treatment and 34 d of treatment and 32 d of treatment and 39 d of treatment and 38 d of treatment and 25 d of treatment
- blood cell fractions versus carrier (in words) ([2]; 4 days or 10 weeks daily treatment): no relevant differences
- Hemoglobin ([2]; mice treated 10w): 14.6 g/dL and 14.3 g/dL and 13.7 g/dL and 14.0 g/dL
- MCV ([2]; mice treated 10w): 52.0 fL and 52.3 fL and 51.4 fL and 51.7 fL
- MCH ([2]; mice treated 10w): 14.2 pg and 14.0 pg and 13.8 pg
- MCHC ([2]; mice treated 10w): 27.4 g/dL and 26.8 g/dL and 26.9 g/dL and 26.6 g/dL
- Hemoglobin ([2]; mice treated 4d): 14.7 g/dL and 15.4 g/dL and 14.6 g/dL and 14.5 g/dL
- MCV ([2]; mice treated 4d): 52.3 fL and 51.8 fL and 51.9 fL and 51.5 fL
- MCH ([2]; mice treated 4d): 14.5 pg and 14.4 pg and 13.7 pg
- MCHC ([2]; mice treated 4d): 27.7 g/dL and 26.4 g/dL and 26.6 g/dL
- Hematocrit (%) ([2]; 10w treatment): 53.3% and 53.4% and 50.9% and 52.6%
- Hematocrit (%) ([2]; 4d treatment): 53.1% and 55.5% and 55.2% and 54.6%
- remaining activity at 0.2 µM (340 wild-type kinases [3]; 0.2 µM 2015, read-out: GRK3 residual activity): 117%
- remaining activity at 1 µM (340 wild-type kinases [3]; 1 µM 2015, read-out: GRK3 residual activity): 99.7%
- remaining activity at 0.2 µM (340 wild-type kinases [3]; GRK3, 0.2 µM, read-out: residual activity): 117%
- remaining activity at 1 µM (340 wild-type kinases [3]; GRK3, 1 µM, read-out: residual activity): 99.7%
- remaining activity at 0.2 µM (340 wild-type kinases [4]; 0.2 µM 2015, read-out: MAPKAPK2 residual activity): 153%
- remaining activity at 1 µM (340 wild-type kinases [4]; 1 µM 2015, read-out: MAPKAPK2 residual activity): 118%
- remaining activity at 0.2 µM (340 wild-type kinases [4]; MAPKAPK2, 0.2 µM, read-out: residual activity): 153%
- remaining activity at 1 µM (340 wild-type kinases [4]; MAPKAPK2, 1 µM, read-out: residual activity): 118%
- remaining activity at 0.2 µM (340 wild-type kinases [5]; 0.2 µM 2015, read-out: MAP3K1 residual activity): 104%
- remaining activity at 1 µM (340 wild-type kinases [5]; 1 µM 2015, read-out: MAP3K1 residual activity): 102%
- remaining activity at 0.2 µM (340 wild-type kinases [5]; MAP3K1, 0.2 µM, read-out: residual activity): 104%
- remaining activity at 1 µM (340 wild-type kinases [5]; MAP3K1, 1 µM, read-out: residual activity): 102%
- remaining activity at 0.2 µM (340 wild-type kinases [6]; 0.2 µM 2015, read-out: PRK1 residual activity): 101%
- remaining activity at 1 µM (340 wild-type kinases [6]; 1 µM 2015, read-out: PRK1 residual activity): 97.6%
- remaining activity at 0.2 µM (340 wild-type kinases [6]; PRK1, 0.2 µM, read-out: residual activity): 101%
- remaining activity at 1 µM (340 wild-type kinases [6]; PRK1, 1 µM, read-out: residual activity): 97.6%
- remaining activity at 0.2 µM (340 wild-type kinases [7]; 0.2 µM 2015, read-out: CDK12/CycK residual activity): 112%
- remaining activity at 1 µM (340 wild-type kinases [7]; 1 µM 2015, read-out: CDK12/CycK residual activity): 103%
- remaining activity at 0.2 µM (340 wild-type kinases [7]; CDK12/CycK, 0.2 µM, read-out: residual activity): 112%
- remaining activity at 1 µM (340 wild-type kinases [7]; CDK12/CycK, 1 µM, read-out: residual activity): 103%
- remaining activity at 0.2 µM (340 wild-type kinases [8]; 0.2 µM 2015, read-out: MEKK2 residual activity): 96.7%
- remaining activity at 1 µM (340 wild-type kinases [8]; 1 µM 2015, read-out: MEKK2 residual activity): 95.1%
- remaining activity at 0.2 µM (340 wild-type kinases [8]; MEKK2, 0.2 µM, read-out: residual activity): 96.7%
- remaining activity at 1 µM (340 wild-type kinases [8]; MEKK2, 1 µM, read-out: residual activity): 95.1%
